Assay results taken from patent US12247018B2, “Aryl-n-aryl derivatives for treating a RNA virus infection” (ABIVAX, priority 2018, dated 2025).

test system: RSV A2; experiment: RSV inhibition (cytopathic effect) in HEp-2 cells using Viral ToxGlo assay; format: cell-based; conditions: human respiratory syncytial virus; RSV A2, HEp-2 cells, MOI 0.5, 72 h p.i.
Method: Protocol for Screening Antiviral Compounds for RSV Inhibition and Cytotoxicity Using Viral ToxGlo Assay
HEp-2 cells were maintained in Eagle's minimum essential medium (EMEM) with Earle's BSS adjusted to contain 2 mM L-glutamine, 10% fetal bovine serum, 100 U/ml penicillin and 100 μg/ml streptomycin. For the purposes of the screening assay they were grown to 90% confluency, trypsinized and recovered. The trypsin was neutralised with cell culture media and cells were centrifuged at 150×g for 5 minutes before discarding the supernatant and resuspending cell pellet in assay media (EMEM with Earle's BSS adjusted to contain 2 mM L-glutamine, 2% fetal bovine serum and 100 U/ml penicillin and 100 μg/ml streptomycin). The cells were seeded into white clear-bottomed cell culture plates at a density of 1.5×10^4 cells/well in 50 μl and 4×10^3 cells/well in 25 μl for 96 well plates and 384 well plates respectively. For the media/background control column assay media only was added. Cell plates were placed in a humid chamber and incubated overnight at 37° C./5% CO2. After overnight incubation cells were checked for confluency and healthy appearance.
Test articles were made up at 10× test concentration in a maximum DMSO concentration of 10% (final assay concentration maximal 1% DMSO) and added to the cell plates in volumes of 10 μl for 96 well plates and 5 μl for 384 well plates. For cell control and virus control wells the test article solvent only was added. Virus or assay media for cytotoxicity test wells and media/cell control wells was added immediately after test articles at an MOI of 0.5, 40 or 20 μl for 96 and 384 well plates respectively. Virus suspension was prepared by thawing RSV A2 frozen stocks and diluting to the required concentration of plaque forming units in assay media on ice.
Cell plates were further incubated inside a humid chamber for 72 h p.i at 37° C./5% CO2. After the incubation period cells were observed under the microscope to check for characteristic cytopathic effect in virus control wells and healthy cells in the cell control wells. After plates were adjusted to room temperature 20/40 μl Viral ToxGlo (Promega) was added to each well of the 384/96 well cell plates. Plates were incubated at room temperature, protected from light on a plate rocker for 20 minutes before measuring the luminescence on a spectrophotometer (Biotek Synergy HTX).

Row | SMILES | EC50 [nM]
1 | O=C(N=C1NCCCN1)c1ccc(Nc2cccc(-n3cc(CC4CCCCC4)nn3)c2)c(C2CC2)c1 [compound 119, 4-({3-[4-(cyclohexylmethyl)-1H-1,2,3-triazol-1-yl]phenyl}amino)-3-cyclopropyl-N-(1,3-diazinan-2-ylidene)benzamide] | 130
2 | O=C(N=C1NCCCN1)c1ccc(Nc2cccc(OCC(F)F)c2)c(C2CC2)c1 [compound 125, 3-cyclopropyl-N-(1,3-diazinan-2-ylidene)-4-{[3-(2,2-difluoroethoxy)phenyl]amino}benzamide] | 151
3 | O=C(N=C1NCCCN1)c1ccc(Nc2cccc(S(=O)(=O)CCCC3CCCCC3)c2)c(C2CC2)c1 [compound 143, 4-{[3-(3-cyclohexylpropanesulfonyl)phenyl]amino}-3-cyclopropyl-N-(1,3-diazinan-2-ylidene)benzamide] | 398
4 | CC(C)NC(=O)c1cccc(Nc2ccc(C(=O)/N=C3\NCCCN3C)cc2C2CC2)c1 [compound 108, 3-cyclopropyl-N-[(2E)-1-methyl-1,3-diazinan-2-ylidene]-4-({3-[(propan-2-yl)carbamoyl]phenyl}amino)benzamide] | 77
5 | CC(NC(=O)c1cccc(Nc2ccc(C(=O)N=C3NCCCN3)cc2C2CC2)c1)C(F)(F)F (centres unmarked) [compound 109, 3-cyclopropyl-N-(1,3-diazinan-2-ylidene)-4-({3-[(1,1,1-trifluoropropan-2-yl)carbamoyl]phenyl}amino)benzamide] | 79
6 | O=C(N=C1NCCCN1)c1ccc(Nc2cccc(C(O)CCCC3CCCCC3)c2)c(C2CC2)c1 (centres unmarked) [compound 103, 4-{[3-(4-cyclohexyl-1-hydroxybutyl)phenyl]amino}-3-cyclopropyl-N-(1,3-diazinan-2-ylidene)benzamide] | 44
7 | O=C(N=C1NCCCN1)c1ccc(Nc2ccccc2S(=O)(=O)CCCC2CCCCC2)c(C2CC2)c1 [compound 106, 4-{[2-(3-cyclohexylpropanesulfonyl)phenyl]amino}-3-cyclopropyl-N-(1,3-diazinan-2-ylidene)benzamide] | 67
8 | O=C(N=C1NCCCN1)c1ccc(Nc2cccc(C(=O)NCC(F)(F)F)c2)c(C2CC2)c1 [compound 133, 3-cyclopropyl-N-(1,3-diazinan-2-ylidene)-4-({3-[(2,2,2-trifluoroethyl)carbamoyl]phenyl}amino)benzamide] | 261
9 | Cc1c(NC(=O)CCC(C)C)cccc1Nc1ccc(C(=O)N=C2NCCCN2)cc1C1CC1 [compound 128, 3-cyclopropyl-N-(1,3-diazinan-2-ylidene)-4-{[2-methyl-3-(4-methylpentanamido)phenyl]amino}benzamide] | 209
10 | Cc1c(Nc2ccc(C(=O)N=C3NCCCN3)cc2C2CC2)cccc1C(=O)NC1(C#N)CC1 [compound 165, 4-({3-[(1-cyanocyclopropyl)carbamoyl]-2-methylphenyl}amino)-3-cyclopropyl-N-(1,3-diazinan-2-ylidene)benzamide] | 1760
11 | O=C(N=C1NCCCN1)c1ccc(Nc2cccc(OC3COC3)c2)c(C2CC2)c1 [compound 144, 3-cyclopropyl-N-(1,3-diazinan-2-ylidene)-4-{[3-(oxetan-3-yloxy)phenyl]amino}benzamide] | 413
12 | Cc1c(Nc2ccc(C(=O)N=C3NCCCN3)cc2C2CC2)cccc1C(=O)NCCC(C)C [compound 96, 3-cyclopropyl-N-(1,3-diazinan-2-ylidene)-4-({2-methyl-3-[(3-methylbutyl)carbamoyl]phenyl}amino)benzamide] | 20
13 | CC(C)CCNC(=O)c1cccc(Nc2ccc(C(=O)N=C3NCCCN3)cc2C2CC2)c1 [compound 113, 3-cyclopropyl-N-(1,3-diazinan-2-ylidene)-4-({3-[(3-methylbutyl)carbamoyl]phenyl}amino)benzamide] | 102
14 | O=C(N=C1NCCCN1)c1ccc(Nc2cccc(C(=O)NC3COC3)c2)c(C2CC2)c1 [compound 166, 3-cyclopropyl-N-(1,3-diazinan-2-ylidene)-4-({3-[(oxetan-3-yl)carbamoyl]phenyl}amino)benzamide] | 2740
15 | O=C(N=C1NCCCN1)c1ccc(Nc2cccc(C(=O)NC3CC3)c2)c(C2CC2)c1 [compound 114, 3-cyclopropyl-4-{[3-(cyclopropylcarbamoyl)phenyl]amino}-N-(1,3-diazinan-2-ylidene)benzamide] | 110
16 | O=C(N=C1NCCCN1)c1ccc(Nc2cccc(OC(F)F)c2)c(C2CC2)c1 [compound 112, 3-cyclopropyl-N-(1,3-diazinan-2-ylidene)-4-{[3-(difluoromethoxy)phenyl]amino}benzamide] | 97
17 | O=C(N=C1NCCCN1)c1ccc(Nc2cccc(C(=O)NC3CCOC3)c2)c(C2CC2)c1 (centres unmarked) [compound 155, 3-cyclopropyl-N-(1,3-diazinan-2-ylidene)-4-({3-[(oxolan-3-yl)carbamoyl]phenyl}amino)benzamide] | 949
18 | O=C1CCN/C(=N\C(=O)c2ccc(Nc3cccc(OCC4CCCCO4)c3)c(C3CC3)c2)N1 (centres unmarked) [compound 151, 3-cyclopropyl-4-({3-[(oxan-2-yl)methoxy]phenyl}amino)-N-[(2E)-4-oxo-1,3-diazinan-2-ylidene]benzamide] | 525
19 | CC(C)NC(=O)c1cccc(Nc2ccc(C(=O)/N=C3\NCCC(=O)N3)cc2C2CC2)c1 [compound 120, 3-cyclopropyl-N-[(2E)-4-oxo-1,3-diazinan-2-ylidene]-4-({3-[(propan-2-yl)carbamoyl]phenyl}amino)benzamide] | 136
20 | Cc1cc(C(=O)N=C2NCCCN2)ccc1Nc1cccc(NC(=O)CCC2CCCCC2)c1 [compound 153, 4-{[3-(3-cyclohexylpropanamido)phenyl]amino}-N-(1,3-diazinan-2-ylidene)-3-methylbenzamide] | 704
21 | CC(C)(C)NC(=O)c1cccc(Nc2ccc(C(=O)N=C3NCCCN3)cc2C2CC2)c1 [compound 123, 4-{[3-(tert-butylcarbamoyl)phenyl]amino}-3-cyclopropyl-N-(1,3-diazinan-2-ylidene)benzamide] | 147
22 | O=C(N=C1NCCCN1)c1ccc(Nc2cccc(OC(F)(F)F)c2)c(C2CC2)c1 [compound 137, 3-cyclopropyl-N-(1,3-diazinan-2-ylidene)-4-{[3-(trifluoromethoxy)phenyl]amino}benzamide] | 304
23 | O=C(N=C1NCCCN1)c1ccc(Nc2cccc(-c3nnn(CCCC4CCCCC4)n3)c2)c(C2CC2)c1 [compound 149, 4-({3-[2-(3-cyclohexylpropyl)-2H-1,2,3,4-tetrazol-5-yl]phenyl}amino)-3-cyclopropyl-N-(1,3-diazinan-2-ylidene)benzamide] | 494
24 | O=C1CCN/C(=N\C(=O)c2ccc(Nc3cccc(OCCC4COCCO4)c3)c(C3CC3)c2)N1 (centres unmarked) [compound 150, 3-cyclopropyl-4-({3-[2-(1,4-dioxan-2-yl)ethoxy]phenyl}amino)-N-[(2E)-4-oxo-1,3-diazinan-2-ylidene]benzamide] | 512
25 | O=C(N=C1NCCCN1)c1ccc(Nc2cccc(OCCC3CCCCC3)c2)c(C2CC2)c1 [compound 130, 4-{[3-(2-cyclohexylethoxy)phenyl]amino}-3-cyclopropyl-N-(1,3-diazinan-2-ylidene)benzamide] | 234
26 | CC(C)CCNC(=O)c1ccccc1Nc1ccc(C(=O)N=C2NCCCN2)cc1C1CC1 [compound 147, 3-cyclopropyl-N-(1,3-diazinan-2-ylidene)-4-({2-[(3-methylbutyl)carbamoyl]phenyl}amino)benzamide] | 460
